PubChem BioAssay AID2060363 (Molecular Pharmacology Branch, DTP, NCI, 2025)

Tested on: 156681-154-R-J1-PDC tumor spheroids, viability % test/control
Experiment: Anticancer human tumor 156681-154-R-J1-PDC patient-derived melanoma cell line growth inhibition [TAK]
Details: spheroids with HUVEC and MSC; for IC50: curve of first compound; for viability, T/C: stronger effect = lower value; active = viability on the fitted dose curve at most 10% of control; inactive = the rest
Excerpt: Combinatorial screen of targeted agents with TAK-243 and ipatasertib in multi-cell type tumor spheroids
A high-throughput screen of multi-cell type tumor spheroids was designed to identify active combinations of targeted small molecules and TAK-243 or ipatasertib. Complex spheroids include a stromal component modeled by human endothelial cells (HUVEC) and fibroblasts modeled by human mesenchymal stem cells (MSCs). The concentration ranges selected for each drug and investigational agent were based upon clinically achievable concentrations if the clinical Cmax of the agent was known.
Compounds. The drugs and investigational agents: TAK-243 (785004), ipatasertib (767898), everolimus (733504), selumetinib (741078), bortezomib (756655), trametinib (758246), ixazomib (758254), vemurafenib (761431), dabrafenib (764134), sapanisertib (764658), alpelisib (765974), and copanlisib (816437), were obtained from the National Cancer Institute (NCI) Developmental Therapeutics Program Chemical Repository. The FDA-approved anticancer drug set is available from the NCI Developmental Therapeutics Program. […] The stock solutions were prepared in dimethyl sulfoxide (DMSO, Sigma-Aldrich, St. Louis, MO, cat. D2650) at 800-fold the tested concentration and stored at -70 degrees C prior to their use. All drugs and investigational agents were tested over a range starting from a high concentration at or near the clinical Cmax and decreasing in half-log increments. If the clinical Cmax for an agent had not been determined, the highest concentration tested was 10 microM.
NCI60 Cell Culture. NCI60 cell lines were obtained from the NCI Developmental Therapeutics Program Tumor Repository. For each lot of cells, the Repository performed Applied Biosystems AmpFLSTR Identifiler testing with PCR amplification to confirm consistency with the published Identifier STR profile for each cell line. Cells were kept in continuous culture for no more than 20 passages. The optimal seeding densities for each of the cell lines at each time point assessed were determined prior to performing the concentration response studies. Briefly, the NCI60 human tumor lines were grown as monolayers in RPMI 1640 medium supplemented with 10% FBS and 2 mmol/L L-glutamine.
An additional 2 lines were from the NCI60 cell line panel including melanomas, MALME-3M and SK-MEL-2. Pooled donor human umbilical vein endothelial cells (HUVEC, Lonza, cat. CC-2519) and human mesenchymal stem cells (hMSC, Lonza, cat. PT-2501) were purchased from Lonza (Walkersville, MD).
PDMR cell lines were grown in complete medium (DC medium): Dulbecco's modified Eagle's medium (DMEM)/F12 supplemented with 5% fetal bovine serum (FBS), 2 mM L-glutamine, 100 U/mL penicillin and 100 µg/ml streptomycin, 0.4 µg/ml hydrocortisone, 10 ng/ml epidermal growth factor (EGF) recombinant human protein, 24 µg/mL adenine, and 0.1 mg/mL primocin. During culture from frozen stock vials, PDMR cells were cultured in the same medium containing 10 µM Y-27632 (see Table 3). The PDCs were cultured in complete DMEM/F12 media without 10 microM Y-27632 dihydrochloride for at least two passages prior to the screen. The pooled donor HUVEC and hMSC were cultured in endothelial cell growth medium 2 (PromoCell, Heidelberg, Germany, cat. C-22011) and mesenchymal stem cell growth medium 2 (PromoCell, cat. C-28009), respectively. For all experiments, HUVEC and hMSC were used at passages </=5.
For the pre-screen, cell seeding densities were determined from a titration spanning the range from 5,000 to 313 cells per well. The mct-spheroids including 60% malignant cells, 25% HUVEC and 15% MSC dispensed as a mixture into U-bottom Ultra-Low Attachment 384-well plates (Corning, NY)
High-throughput Drug Combination Screening.
Prior to their inoculation into 384-well plates, malignant cells, HUVEC, and hMSC were removed from T flasks using TrypLE express (Thermo Fisher Scientific, cat. 12605036) and harvested by centrifugation for 5 min at 233 x g. […]
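Also: spheroids exposed to compounds for 7 days before the endpoint.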

COC1CC2CCC(C)C(O)(O2)C(=O)C(=O)N2CCCCC2C(=O)OC(C(C)CC2CCC(OCCO)C(OC)C2)CC(=O)C(C)C=C(C)C(O)C(OC)C(=O)C(C)CC(C)C=CC=CC=C1C (stereo not given) + CC(C)NCC(C(=O)N1CCN(c2ncnc3c2C(C)CC3O)CC1)c1ccc(Cl)cc1
2.9 nM: IC50 (second compound 0.949 µM)
inactive: viability, T/C (second compound 0.3 µM, first compound 0.000316 µM) 80% | viability, T/C (second compound 0.3 µM, first compound 0.001 µM) 79.9% | viability, T/C (second compound 0.3 µM, first compound 0.00316 µM) 65.6% | viability, T/C (second compound 0.3 µM, first compound 0.01 µM) 55.7% | viability, T/C (second compound 0.3 µM, first compound 0.0316 µM) 51.8% | viability, T/C (second compound 0.3 µM, first compound 0.1 µM) 45.9% | viability, T/C (second compound 0.949 µM, first compound 0.000316 µM) 80.8% | viability, T/C (second compound 0.949 µM, first compound 0.001 µM) 65.2% | viability, T/C (second compound 0.949 µM, first compound 0.00316 µM) 48.4% | viability, T/C (second compound 0.949 µM, first compound 0.01 µM) 45.1% | viability, T/C (second compound 0.949 µM, first compound 0.0316 µM) 46.5% | viability, T/C (second compound 0.949 µM, first compound 0.1 µM) 40.7% | viability, T/C (second compound 3 µM, first compound 0.000316 µM) 51.8% | viability, T/C (second compound 3 µM, first compound 0.001 µM) 49.1% | viability, T/C (second compound 3 µM, first compound 0.00316 µM) 37.5% | viability, T/C (second compound 3 µM, first compound 0.01 µM) 32.5% | viability, T/C (second compound 3 µM, first compound 0.0316 µM) 28.6% | viability, T/C (second compound 3 µM, first compound 0.1 µM) 29.4% | viability, T/C (second compound 9.49 µM, first compound 0.000316 µM) 31.6% | viability, T/C (second compound 9.49 µM, first compound 0.001 µM) 28% | viability, T/C (second compound 9.49 µM, first compound 0.00316 µM) 21.2% | viability, T/C (second compound 9.49 µM, first compound 0.01 µM) 18.8% | viability, T/C (second compound 9.49 µM, first compound 0.0316 µM) 19.5% | viability, T/C (second compound 9.49 µM, first compound 0.1 µM) 17.4% | viability, T/C (second compound 30 µM, first compound 0.000316 µM) 15.9% | viability, T/C (second compound 30 µM, first compound 0.001 µM) 13.5% | viability, T/C (second compound 30 µM, first compound 0.00316 µM) 12.1%
< 0.316 nM: IC50 (second compound 9.49 µM) | IC50 (second compound 30 µM)
active: viability, T/C (second compound 30 µM, first compound 0.01 µM) 8.24% | viability, T/C (second compound 30 µM, first compound 0.0316 µM) 9.33% | viability, T/C (second compound 30 µM, first compound 0.1 µM) 8.33%
29 nM: IC50 (second compound 0.3 µM)
0.525 nM: IC50 (second compound 3 µM)

Cn1cnc2c(F)c(Nc3ccc(Br)cc3Cl)c(C(=O)NOCCO)cc21 + CC(C)NCC(C(=O)N1CCN(c2ncnc3c2C(C)CC3O)CC1)c1ccc(Cl)cc1
331 nM: IC50 (second compound 3 µM)
< 9.49 nM: IC50 (second compound 9.49 µM) | IC50 (second compound 30 µM)
inactive: viability, T/C (second compound 0.3 µM, first compound 0.00949 µM) 96.6% | viability, T/C (second compound 0.3 µM, first compound 0.03 µM) 97% | viability, T/C (second compound 0.3 µM, first compound 0.0949 µM) 83.8% | viability, T/C (second compound 0.3 µM, first compound 0.3 µM) 81.2% | viability, T/C (second compound 0.3 µM, first compound 0.949 µM) 30% | viability, T/C (second compound 0.949 µM, first compound 0.00949 µM) 81.1% | viability, T/C (second compound 0.949 µM, first compound 0.03 µM) 78.3% | viability, T/C (second compound 0.949 µM, first compound 0.0949 µM) 86.2% | viability, T/C (second compound 0.949 µM, first compound 0.3 µM) 71.3% | viability, T/C (second compound 0.949 µM, first compound 0.949 µM) 21.4% | viability, T/C (second compound 3 µM, first compound 0.00949 µM) 69.1% | viability, T/C (second compound 3 µM, first compound 0.03 µM) 73.4% | viability, T/C (second compound 3 µM, first compound 0.0949 µM) 68.6% | viability, T/C (second compound 3 µM, first compound 0.3 µM) 53.6% | viability, T/C (second compound 3 µM, first compound 0.949 µM) 13.1% | viability, T/C (second compound 9.49 µM, first compound 0.00949 µM) 43.3% | viability, T/C (second compound 9.49 µM, first compound 0.03 µM) 44.8% | viability, T/C (second compound 9.49 µM, first compound 0.0949 µM) 36.6% | viability, T/C (second compound 9.49 µM, first compound 0.3 µM) 24.6% | viability, T/C (second compound 30 µM, first compound 0.00949 µM) 20.6% | viability, T/C (second compound 30 µM, first compound 0.03 µM) 17.8% | viability, T/C (second compound 30 µM, first compound 0.0949 µM) 15.7%
493 nM: IC50 (second compound 0.949 µM)
602 nM: IC50 (second compound 0.3 µM)
active: viability, T/C (second compound 0.3 µM, first compound 3 µM) 9.69% | viability, T/C (second compound 0.949 µM, first compound 3 µM) 7.25% | viability, T/C (second compound 3 µM, first compound 3 µM) 4.67% | viability, T/C (second compound 9.49 µM, first compound 0.949 µM) 7.73% | viability, T/C (second compound 9.49 µM, first compound 3 µM) 1.63% | viability, T/C (second compound 30 µM, first compound 0.3 µM) 10.4% | viability, T/C (second compound 30 µM, first compound 0.949 µM) 2.66% | viability, T/C (second compound 30 µM, first compound 3 µM) 0.54%
